Data: ChEMBL document CHEMBL3875211, “Design and synthesis of new coumarin hybrids and insight into their mode of antiproliferative action” (Bioorg Med Chem, 2017)
Activity calls are given as the source filed them. The rule behind the calls is not given here.

Key:
[1] = Antiproliferative activity against human K562 cells after 48 hrs by MTT assay; format: functional, cell-based; settings: K562, 48 h
[2] = Cytotoxicity against human WI38 cells assessed as reduction in cell viability after 48 hrs by MTT assay; format: toxicity, cell-based, WI-38
[3] = Antiproliferative activity against human HepG2 cells after 48 hrs by MTT assay; format: functional, cell-based; settings: HepG2, 48 h
[4] = Cell cycle arrest in human K562 cells assessed as accumulation at G2 phase at 0.49 uM after 24 hrs by propidium iodide staining based flow cytometry (reference value: 9.3%); format: functional
[5] = Cell cycle arrest in human K562 cells assessed as accumulation at G1 phase at 0.49 uM after 24 hrs by propidium iodide staining based flow cytometry (reference value: 68.2%); format: functional
K562 [6] = experiment: Induction of apoptosis in human K562 cells assessed as decrease in Bcl2 mRNA expression at antiproliferative IC50 by RT-PCR method; format: functional, cell-based
[7] = Cell cycle arrest in human K562 cells assessed as accumulation at S phase at 0.49 uM after 24 hrs by propidium iodide staining based flow cytometry (reference value: 21.7%); format: functional
K562 [8] = experiment: Induction of apoptosis in human K562 cells assessed as increase in caspase-9 protein expression at 0.49 uM after 24 hrs by ELISA; format: functional, cell-based
K562 [9] = experiment: Induction of apoptosis in human K562 cells assessed as increase in caspase-3 protein expression at 0.49 uM after 24 hrs by ELISA; format: functional, cell-based
K562 [10] = experiment: Induction of apoptosis in human K562 cells at 0.49 uM after 24 hrs by propidium iodide staining based flow cytometry (reference value: 0.8%); format: functional
K562 [11] = experiment: Induction of apoptosis in human K562 cells assessed as increase in Bax mRNA expression at antiproliferative IC50 by RT-PCR method; format: functional, cell-based
K562 [12] = experiment: Induction of apoptosis in human K562 cells assessed as increase in caspase-3 protein expression at 0.93 uM after 24 hrs by ELISA; format: functional, cell-based
K562 [13] = experiment: Induction of apoptosis in human K562 cells assessed as increase in caspase-9 protein expression at 0.93 uM after 24 hrs by ELISA; format: functional, cell-based
HepG2 [14] = experiment: Induction of apoptosis in human HepG2 cells assessed as increase in caspase-9 protein expression at 0.77 uM after 24 hrs by ELISA; format: functional, cell-based
HepG2 [15] = experiment: Induction of apoptosis in human HepG2 cells assessed as increase in Bax mRNA expression at antiproliferative IC50 by RT-PCR method; format: functional, cell-based
HepG2 [16] = experiment: Induction of apoptosis in human HepG2 cells assessed as decrease in Bcl2 mRNA expression at antiproliferative IC50 by RT-PCR method; format: functional, cell-based
HepG2 [17] = experiment: Induction of apoptosis in human HepG2 cells assessed as increase in caspase-3 protein expression at 0.77 uM after 24 hrs by ELISA; format: functional, cell-based
[18] = Cell cycle arrest in human HepG2 cells assessed as accumulation at G1 phase at 0.65 uM after 24 hrs by propidium iodide staining based flow cytometry (reference value: 66.4%); format: functional
HepG2 [19] = experiment: Induction of apoptosis in human HepG2 cells assessed as increase in caspase-3 protein expression at 0.65 uM after 24 hrs by ELISA; format: functional, cell-based
HepG2 [20] = experiment: Induction of apoptosis in human HepG2 cells assessed as increase in caspase-9 protein expression at 0.65 uM after 24 hrs by ELISA; format: functional, cell-based
[21] = Cell cycle arrest in human HepG2 cells assessed as accumulation at G2 phase at 0.65 uM after 24 hrs by propidium iodide staining based flow cytometry (reference value: 7.2%); format: functional
HepG2 [22] = experiment: Induction of apoptosis in human HepG2 cells at 0.65 uM after 24 hrs by propidium iodide staining based flow cytometry (reference value: 1.2%); format: functional
[23] = Cell cycle arrest in human HepG2 cells assessed as accumulation at S phase at 0.65 uM after 24 hrs by propidium iodide staining based flow cytometry (reference value: 25.2%); format: functional
K562 [24] = experiment: Induction of apoptosis in human K562 cells assessed as increase in caspase-9 protein expression at 1.24 uM after 24 hrs by ELISA; format: functional, cell-based
K562 [25] = experiment: Induction of apoptosis in human K562 cells assessed as increase in caspase-3 protein expression at 1.24 uM after 24 hrs by ELISA; format: functional, cell-based
K562 [26] = experiment: Induction of apoptosis in human K562 cells assessed as increase in caspase-9 protein expression at 1.21 uM after 24 hrs by ELISA; format: functional, cell-based
K562 [27] = experiment: Induction of apoptosis in human K562 cells assessed as increase in caspase-3 protein expression at 1.21 uM after 24 hrs by ELISA; format: functional, cell-based

Question: With `CCOC(=O)c1ccc(-c2cc3cccc(OC)c3oc2=O)nc1C` as the compound, how does the IC50 [1] read?
Answer: 8.82 µM

Question: What about the IC50 at 48 h [2] of the same compound?
Answer: 67.7 µM

Question: And the IC50 [3]?
Answer: 4.92 µM

Question: Which IC50 [1] does the source give for `COc1ccc(C[C@@H](O)c2cc(OC)c(OC)c(OC)c2)cc1O` [COMBRETASTATIN] here?
Answer: 3.46 µM

Question: And the IC50 [3]?
Answer: 3.4 µM

Question: What does the source list for `COc1cc(/C=C(\C#N)C(=O)N/N=C(\C)c2cc3cccc(OC)c3oc2=O)cc(OC)c1OC`?
Answer: Activity [4]: 15.5%; Activity [5]: 44.6%; Activity (K562 [6]): Active; IC50 [1]: 0.49 µM; IC50 at 48 h [2]: 11.1 µM; Activity [7]: 30.2%; IC50 [3]: 1.57 µM; Activity (K562 [8]): Active; Activity (K562 [9]): Active; Activity (K562 [10]): 9.7%; Activity (K562 [11]): Active

Question: With `COc1ccc(/C=C/C(=O)c2cc3cccc(OC)c3oc2=O)cc1OC` as the compound, how does the Activity (K562 [6]) read?
Answer: Active

Question: What about the Activity (K562 [12]) of the same compound?
Answer: Active

Question: What about the IC50 [1] of the same compound?
Answer: 0.93 µM

Question: And the IC50 at 48 h [2]?
Answer: 33.1 µM

Question: What about the IC50 [3] of the same compound?
Answer: 0.82 µM

Question: And the Activity (K562 [13])?
Answer: Active

Question: And the Activity (K562 [11])?
Answer: Active

Question: Which results are given for `COc1ccc(/C=C(\C#N)C(=O)N/N=C(\C)c2cc3cccc(OC)c3oc2=O)cc1`?
Answer: Activity (HepG2 [14]): Active; Activity (HepG2 [15]): Active; IC50 [1]: 3.96 µM; Activity (HepG2 [16]): Active; IC50 at 48 h [2]: 48.4 µM; IC50 [3]: 0.77 µM; Activity (HepG2 [17]): Active

Question: With `COc1ccc(/C=C/C(=O)c2cc3cccc(OC)c3oc2=O)cc1` as the compound, how does the Activity (HepG2 [15]) read?
Answer: Active

Question: And the Activity [18]?
Answer: 35.8%

Question: What about the Activity (HepG2 [19]) of the same compound?
Answer: Active

Question: And the IC50 [1]?
Answer: 1.09 µM

Question: What about the Activity (HepG2 [20]) of the same compound?
Answer: Active

Question: What about the Activity (HepG2 [16]) of the same compound?
Answer: Active

Question: And the Activity [21]?
Answer: 19.1%

Question: And the IC50 at 48 h [2]?
Answer: 293 µM

Question: What about the Activity (HepG2 [22]) of the same compound?
Answer: 16.3%

Question: What about the IC50 [3] of the same compound?
Answer: 0.65 µM

Question: What about the Activity [23] of the same compound?
Answer: 28.8%

Question: Which results are given for `COc1cccc2cc(-c3ccc(C(C)=O)c(C)n3)c(=O)oc12`?
Answer: IC50 [1]: 1.24 µM; IC50 at 48 h [2]: 354 µM; Activity (K562 [24]): Active; IC50 [3]: 9.1 µM; Activity (K562 [25]): Active

Question: Which IC50 [1] does the source give for `COc1cccc2c1C(=O)c1c(O)c3c(c(O)c1C2=O)C[C@@](O)(C(=O)CO)C[C@@H]3O[C@H]1C[C@H](N)[C@H](O)[C@H](C)O1` [DOXORUBICIN] here?
Answer: 2.96 µM

Question: And the IC50 [3]?
Answer: 4.93 µM

Question: With `COc1ccc(/C=C(\C#N)C(=O)N/N=C(\C)c2cc3cccc(OC)c3oc2=O)cc1OC` as the compound, how does the IC50 [1] read?
Answer: 8.71 µM

Question: And the IC50 at 48 h [2]?
Answer: 3.3 µM

Question: And the IC50 [3]?
Answer: 0.93 µM

Question: With `COc1ccc(-c2cc(-c3cc4cccc(OC)c4oc3=O)nc(C#N)c2N)cc1` as the compound, how does the IC50 [1] read?
Answer: 1.21 µM

Question: And the IC50 at 48 h [2]?
Answer: 8.66 µM

Question: What about the Activity (K562 [26]) of the same compound?
Answer: Active

Question: And the IC50 [3]?
Answer: 1.25 µM

Question: And the Activity (K562 [27])?
Answer: Active

Question: What does the source list for `COc1cc(/C=C/C(=O)c2cc3cccc(OC)c3oc2=O)cc(OC)c1OC`?
Answer: IC50 [1]: 1.36 µM; IC50 at 48 h [2]: 9.55 µM; IC50 [3]: 2.02 µM

Question: Which results are given for `COc1ccc(-c2cc(-c3cc4cccc(OC)c4oc3=O)nc(C#N)c2N)cc1OC`?
Answer: IC50 [1]: 1.61 µM; IC50 at 48 h [2]: 36.1 µM; IC50 [3]: 3.2 µM
